Laboratory results as given in patent US12471596B2 (priority 2019, dated 2025).

System: Phytophthora infestans
Experiment: microbe, parasite or virus in culture
Assay type: cell-based
Conditions: in Secale cereale, 168 h, read-out: control compared to the untreated check

Compound | inhibition of growth at 30 ppm
COc1nccnc1OCC(=O)N1CCC(c2csc(C3=NOC(c4c(F)cccc4Cl)C3)n2)CC1 (stereo not shown) [Compound 97, 1-(4-(2-(5-(2-chloro-6-fluorophenyl)-4,5-dihydroisoxazol-3-yl)thiazol-4-yl)piperidin-1-yl)-2-((3-methoxypyrazin-2-yl)oxy)ethan-1-one] | ≥ 70%
COc1nc(OC)nc(OCC(=O)N2CCC(c3nc(C4=NOC(c5c(F)cccc5Cl)C4)cs3)CC2)n1 (stereo not shown) [Compound 98, 1-(4-(4-(5-(2-chloro-6-fluorophenyl)-4,5-dihydroisoxazol-3-yl)thiazol-2-yl)piperidin-1-yl)-2-((4,6-dimethoxy-1,3,5-triazin-2-yl)oxy)ethan-1-one] | ≥ 70%
COc1cncc(OCC(=O)N2CCC(c3nc(C4=NOC(c5c(Cl)cccc5Cl)C4)cs3)CC2)n1 (stereo not shown) [Compound 99, 1-(4-(4-(5-(2,6-dichlorophenyl)-4,5-dihydroisoxazol-3-yl)thiazol-2-yl)piperidin-1-yl)-2-((6-methoxypyrazin-2-yl)oxy)ethan-1-one] | ≥ 70%
COc1cncc(OCC(=O)N2CCC(c3nc(C4=NOC(c5c(Cl)cccc5C#N)C4)cs3)CC2)n1 (stereo not shown) [Compound 100, 3-chloro-2-(3-(2-(1-(2-((6-methoxypyrazin-2-yl)oxy)acetyl)piperidin-4-yl)thiazol-4-yl)-4,5-dihydroisoxazol-5-yl)benzonitrile] | ≥ 70%
COc1cncc(OCC(=O)N2CCC(c3nc(C4=NOC(c5c(F)cccc5Cl)C4)cs3)CC2)n1 (stereo not shown) [Compound 101, 1-(4-(4-(5-(2-chloro-6-fluorophenyl)-4,5-dihydroisoxazol-3-yl)thiazol-2-yl)piperidin-1-yl)-2-((6-methoxypyrazin-2-yl)oxy)ethan-1-one] | ≥ 70%
COc1cncc(OCC(=O)N2CCC(c3nc(C4=NOC(c5c(Cl)cccc5C(F)(F)F)C4)cs3)CC2)n1 (stereo not shown) [Compound 102, 1-(4-(4-(5-(2-chloro-6-(trifluoromethyl)phenyl)-4,5-dihydroisoxazol-3-yl)thiazol-2-yl)piperidin-1-yl)-2-((6-methoxypyrazin-2-yl)oxy)ethan-1-one] | ≥ 70%
COc1cncc(OCC(=O)N2CCC(c3nc(C4=NOC(c5c(Cl)cccc5OS(C)(=O)=O)C4)cs3)CC2)n1 (stereo not shown) [Compound 103, 3-chloro-2-(3-(2-(1-(2-((6-methoxypyrazin-2-yl)oxy)acetyl)piperidin-4-yl)thiazol-4-yl)-4,5-dihydroisoxazol-5-yl)phenyl methanesulfonate] | ≥ 70%
COc1cncc(OCC(=O)N2CCC(c3nc(C4=NOC(c5c(Cl)ccc(F)c5F)C4)cs3)CC2)n1 (stereo not shown) [Compound 104, 1-(4-(4-(5-(6-chloro-2,3-difluorophenyl)-4,5-dihydroisoxazol-3-yl)thiazol-2-yl)piperidin-1-yl)-2-((6-methoxypyrazin-2-yl)oxy)ethan-1-one] | ≥ 70%
COc1nc(OC)nc(OCC(=O)N2CCC(c3nc(C4=NOC(c5c(Cl)cccc5C(F)(F)F)C4)cs3)CC2)n1 (stereo not shown) [Compound 105, 1-(4-(4-(5-(2-chloro-6-(trifluoromethyl)phenyl)-4,5-dihydroisoxazol-3-yl)thiazol-2-yl)piperidin-1-yl)-2-((4,6-dimethoxy-1,3,5-triazin-2-yl)oxy)ethan-1-one] | ≥ 70%
COc1nc(OC)nc(OCC(=O)N2CCC(c3nc(C4=NOC(c5c(Cl)cccc5Cl)C4)cs3)CC2)n1 (stereo not shown) [Compound 106, 1-(4-(4-(5-(2,6-dichlorophenyl)-4,5-dihydroisoxazol-3-yl)thiazol-2-yl)piperidin-1-yl)-2-((4,6-dimethoxy-1,3,5-triazin-2-yl)oxy)ethan-1-one] | ≥ 70%
COc1nc(OC)nc(OCC(=O)N2CCC(c3nc(C4=NOC(c5c(Cl)cccc5OS(C)(=O)=O)C4)cs3)CC2)n1 (stereo not shown) [Compound 107, 3-chloro-2-(3-(2-(1-(2-((4,6-dimethoxy-1,3,5-triazin-2-yl)oxy)acetyl)piperidin-4-yl)thiazol-4-yl)-4,5-dihydroisoxazol-5-yl)phenyl methanesulfonate] | ≥ 70%
COc1nc(OC)nc(OCC(=O)N2CCC(c3nc(C4=NOC(c5c(F)cccc5F)C4)cs3)CC2)n1 (stereo not shown) [Compound 109, 1-(4-(4-(5-(2,6-difluorophenyl)-4,5-dihydroisoxazol-3-yl)thiazol-2-yl)piperidin-1-yl)-2-((4,6-dimethoxy-1,3,5-triazin-2-yl)oxy)ethan-1-one] | ≥ 70%
O=C(COc1nccnc1Cl)N1CCC(c2nc(C3=NOC(c4c(Cl)ccc(F)c4F)C3)cs2)CC1 (stereo not shown) [Compound 111, 1-(4-(4-(5-(6-chloro-2,3-difluorophenyl)-4,5-dihydroisoxazol-3-yl)thiazol-2-yl)piperidin-1-yl)-2-((3-chloropyrazin-2-yl)oxy)ethan-1-one] | ≥ 70%
N#Cc1ccnc(OCC(=O)N2CCC(c3nc(C4=NOC(c5c(F)cccc5Br)C4)cs3)CC2)n1 (stereo not shown) [Compound 117, 2-(2-(4-(4-(5-(2-bromo-6-fluorophenyl)-4,5-dihydroisoxazol-3-yl)thiazol-2-yl)piperidin-1-yl)-2-oxoethoxy)pyrimidine-4-carbonitrile] | ≥ 70%
COc1cncc(OCC(=O)N2CCC(c3nc(C4=NOC(c5c(F)cccc5F)C4)cs3)CC2)n1 (stereo not shown) [Compound 119, 1-(4-(4-(5-(2,6-difluorophenyl)-4,5-dihydroisoxazol-3-yl)thiazol-2-yl)piperidin-1-yl)-2-((6-methoxypyrazin-2-yl)oxy)ethan-1-one] | ≥ 70%
COc1ncc(OCC(=O)N2CCC(c3nc(C4=NOC(c5c(Cl)cccc5OS(C)(=O)=O)C4)cs3)CC2)cn1 (stereo not shown) [Compound 130, 3-chloro-2-(3-(2-(1-(2-((2-methoxypyrimidin-5-yl)oxy)acetyl)piperidin-4-yl)thiazol-4-yl)-4,5-dihydroisoxazol-5-yl)phenyl methanesulfonate] | ≥ 70%
COc1ncc(OCC(=O)N2CCC(c3nc(C4=NOC(c5c(F)cccc5Cl)C4)cs3)CC2)cn1 (stereo not shown) [Compound 132, 1-(4-(4-(5-(2-chloro-6-fluorophenyl)-4,5-dihydroisoxazol-3-yl)thiazol-2-yl)piperidin-1-yl)-2-((2-methoxypyrimidin-5-yl)oxy)ethan-1-one] | ≥ 70%
COc1ncc(OCC(=O)N2CCC(c3nc(C4=NOC(c5c(Cl)cc(Cl)cc5Cl)C4)cs3)CC2)cn1 (stereo not shown) [Compound 133, 2-((2-methoxypyrimidin-5-yl)oxy)-1-(4-(4-(5-(2,4,6-trichlorophenyl)-4,5-dihydroisoxazol-3-yl)thiazol-2-yl)piperidin-1-yl)ethan-1-one] | ≥ 70%
COc1ncc(OCC(=O)N2CCC(c3nc(C4=NOC(c5c(F)cccc5Br)C4)cs3)CC2)cn1 (stereo not shown) [Compound 134, 1-(4-(4-(5-(2-bromo-6-fluorophenyl)-4,5-dihydroisoxazol-3-yl)thiazol-2-yl)piperidin-1-yl)-2-((2-methoxypyrimidin-5-yl)oxy)ethan-1-one] | ≥ 70%
COc1ncc(OCC(=O)N2CCC(c3nc(C4=NOC(c5cc(Cl)ccc5Cl)C4)cs3)CC2)cn1 (stereo not shown) [Compound 135, 1-(4-(4-(5-(2,5-dichlorophenyl)-4,5-dihydroisoxazol-3-yl)thiazol-2-yl)piperidin-1-yl)-2-((2-methoxypyrimidin-5-yl)oxy)ethan-1-one] | ≥ 70%
COc1ncc(OCC(=O)N2CCC(c3nc(C4=NOC(c5c(Cl)cccc5C(F)(F)F)C4)cs3)CC2)cn1 (stereo not shown) [Compound 137, 1-(4-(4-(5-(2-chloro-6-(trifluoromethyl)phenyl)-4,5-dihydroisoxazol-3-yl)thiazol-2-yl)piperidin-1-yl)-2-((2-methoxypyrimidin-5-yl)oxy)ethan-1-one] | ≥ 70%
COc1ncc(OCC(=O)N2CCC(c3nc(C4=NOC(c5c(O)cccc5Cl)C4)cs3)CC2)cn1 (stereo not shown) [Compound 138, 1-(4-(4-(5-(2-chloro-6-hydroxyphenyl)-4,5-dihydroisoxazol-3-yl)thiazol-2-yl)piperidin-1-yl)-2-((2-methoxypyrimidin-5-yl)oxy)ethan-1-one] | ≥ 70%
COc1ncc(OCC(=O)N2CCC(c3nc(C4=NOC(c5c(F)cccc5F)C4)cs3)CC2)cn1 (stereo not shown) [Compound 139, 1-(4-(4-(5-(2,6-difluorophenyl)-4,5-dihydroisoxazol-3-yl)thiazol-2-yl)piperidin-1-yl)-2-((2-methoxypyrimidin-5-yl)oxy)ethan-1-one] | ≥ 70%
CSc1nccnc1OCC(=O)N1CCC(c2nc(C3=NOC(c4c(F)cccc4F)C3)cs2)CC1 (stereo not shown) [Compound 140, 1-(4-(4-(5-(2,6-difluorophenyl)-4,5-dihydroisoxazol-3-yl)thiazol-2-yl)piperidin-1-yl)-2-((3-(methylthio)pyrazin-2-yl)oxy)ethan-1-one] | ≥ 70%
CSc1nccnc1OCC(=O)N1CCC(c2nc(C3=NOC(c4c(F)cccc4Br)C3)cs2)CC1 (stereo not shown) [Compound 141, 1-(4-(4-(5-(2-bromo-6-fluorophenyl)-4,5-dihydroisoxazol-3-yl)thiazol-2-yl)piperidin-1-yl)-2-((3-(methylthio)pyrazin-2-yl)oxy)ethan-1-one] | ≥ 70%
CSc1nccnc1OCC(=O)N1CCC(c2nc(C3=NOC(c4c(F)cccc4Cl)C3)cs2)CC1 (stereo not shown) [Compound 142, 1-(4-(4-(5-(2-chloro-6-fluorophenyl)-4,5-dihydroisoxazol-3-yl)thiazol-2-yl)piperidin-1-yl)-2-((3-(methylthio)pyrazin-2-yl)oxy)ethan-1-one] | ≥ 70%
CSc1nccnc1OCC(=O)N1CCC(c2nc(C3=NOC(c4c(Cl)cccc4C(F)(F)F)C3)cs2)CC1 (stereo not shown) [Compound 143, 1-(4-(4-(5-(2-chloro-6-(trifluoromethyl)phenyl)-4,5-dihydroisoxazol-3-yl)thiazol-2-yl)piperidin-1-yl)-2-((3-(methylthio)pyrazin-2-yl)oxy)ethan-1-one] | ≥ 70%
CSc1nccnc1OCC(=O)N1CCC(c2nc(C3=NOC(c4c(Cl)cccc4C#N)C3)cs2)CC1 (stereo not shown) [Compound 146, 3-chloro-2-(3-(2-(1-(2-((3-(methylthio)pyrazin-2-yl)oxy)acetyl)piperidin-4-yl)thiazol-4-yl)-4,5-dihydroisoxazol-5-yl)benzonitrile] | ≥ 70%
